Numbered stars: 1 amine (or outer) side, 2 acyl side, 3 side chain; on linkers, the order of the positions; unused ones are H or OH. Square brackets hold non-standard residues; d marks the D form. Peptide text beside a SMILES is read from it. β3hPhg = O=C(C[C@@H](N[*:1])c1ccccc1)[*:2]; Phg = N[C@H](C(=O)O)c1ccccc1
How the values were obtained:
Neprilysin = Neprilysin (Homo sapiens, UniProt P08473); experiment: Inhibition of human recombinant NEP ectopeptidase activity using Abz-dRGL-(EDDnp) as substrate preincubated for 10 mins with substrate by fluorimetric analysis
Aminopeptidase N = Aminopeptidase N (Homo sapiens, UniProt P15144); experiment: Inhibition of human recombinant AP-N ectopeptidase activity using alanine-MCA as substrate preincubated for 10 mins with substrate by fluorimetric analysis
Aminopeptidase N, sequence (P15144 whole entry): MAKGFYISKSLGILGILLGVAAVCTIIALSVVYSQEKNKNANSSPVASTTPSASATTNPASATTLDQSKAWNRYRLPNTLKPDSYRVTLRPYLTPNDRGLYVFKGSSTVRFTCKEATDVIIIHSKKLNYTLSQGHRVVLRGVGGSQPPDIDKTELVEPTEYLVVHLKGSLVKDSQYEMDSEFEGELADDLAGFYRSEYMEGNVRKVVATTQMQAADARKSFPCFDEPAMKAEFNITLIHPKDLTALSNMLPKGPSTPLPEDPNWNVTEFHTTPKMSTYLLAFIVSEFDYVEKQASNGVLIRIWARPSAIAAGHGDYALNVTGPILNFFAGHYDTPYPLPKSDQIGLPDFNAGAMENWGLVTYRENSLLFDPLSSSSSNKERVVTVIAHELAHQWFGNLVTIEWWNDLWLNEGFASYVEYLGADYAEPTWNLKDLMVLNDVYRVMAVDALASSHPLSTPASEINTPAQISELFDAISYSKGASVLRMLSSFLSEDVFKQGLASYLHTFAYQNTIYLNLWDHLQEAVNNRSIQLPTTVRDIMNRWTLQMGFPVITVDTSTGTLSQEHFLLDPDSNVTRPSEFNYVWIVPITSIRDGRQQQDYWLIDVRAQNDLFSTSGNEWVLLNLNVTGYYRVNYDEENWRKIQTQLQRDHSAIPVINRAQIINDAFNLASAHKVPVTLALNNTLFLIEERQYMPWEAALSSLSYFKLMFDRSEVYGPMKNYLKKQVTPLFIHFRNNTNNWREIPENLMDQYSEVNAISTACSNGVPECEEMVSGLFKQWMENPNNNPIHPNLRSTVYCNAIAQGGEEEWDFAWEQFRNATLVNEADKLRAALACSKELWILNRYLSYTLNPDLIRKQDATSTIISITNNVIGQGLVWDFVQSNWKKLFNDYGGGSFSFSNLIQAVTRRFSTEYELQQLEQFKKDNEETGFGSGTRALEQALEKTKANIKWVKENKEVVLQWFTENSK

Neprilysin, sequence (P08473 whole entry): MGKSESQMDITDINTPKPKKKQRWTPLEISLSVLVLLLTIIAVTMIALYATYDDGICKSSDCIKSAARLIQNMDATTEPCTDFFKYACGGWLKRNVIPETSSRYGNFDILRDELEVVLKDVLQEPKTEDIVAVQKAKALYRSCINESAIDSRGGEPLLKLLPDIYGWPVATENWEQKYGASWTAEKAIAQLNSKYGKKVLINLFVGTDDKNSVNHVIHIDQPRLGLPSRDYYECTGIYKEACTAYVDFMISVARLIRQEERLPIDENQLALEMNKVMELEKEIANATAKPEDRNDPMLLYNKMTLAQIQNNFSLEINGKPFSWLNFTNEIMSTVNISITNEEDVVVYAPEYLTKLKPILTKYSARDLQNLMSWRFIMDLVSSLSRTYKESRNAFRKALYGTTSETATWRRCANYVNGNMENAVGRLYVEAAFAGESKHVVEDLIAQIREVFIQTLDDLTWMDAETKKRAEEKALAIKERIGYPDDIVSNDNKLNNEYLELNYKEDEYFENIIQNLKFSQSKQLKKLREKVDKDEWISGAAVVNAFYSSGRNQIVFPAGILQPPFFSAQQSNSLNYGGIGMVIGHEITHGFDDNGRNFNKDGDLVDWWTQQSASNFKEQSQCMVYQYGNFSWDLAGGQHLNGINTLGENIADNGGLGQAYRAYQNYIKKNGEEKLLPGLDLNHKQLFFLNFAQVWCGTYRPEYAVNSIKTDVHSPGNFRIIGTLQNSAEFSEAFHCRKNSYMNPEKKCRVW

Row | IC50 (Neprilysin) [µM] | IC50 (Aminopeptidase N) [µM] | Molecule
1 | > 100 | – | N=C(N)NCCC[C@H](NC(=O)[C@H](CO)NC(=O)[C@@H](NC(=O)[C@H](CCCNC(=N)N)NC(=O)[C@@H](N)CCC(N)=O)c1ccccc1)C(=O)O (H-QR[Phg]SR-OH)
2 | > 100 | > 70 | NC(=O)CC[C@H](N)C(=O)N[C@@H](CCCN=C(N)N)C(=O)N[C@H](CC(=O)N[C@@H](CO)C(=O)N[C@@H](CCCN=C(N)N)C(=O)O)c1ccccc1 (H-QR[β3hPhg]SR-OH)
3 | > 70 | – | H-ARFSR-OH
4 | > 100 | > 70 | H-QRASR-OH
5 | – | > 70 | H-QRFSA-OH

From ChEMBL document CHEMBL2021861, “Structure-activity relationship study of opiorphin, a human dual ectopeptidase inhibitor with antinociceptive properties” (J Med Chem, 2012)
